The values below come from patent publication US7776570B2, “L-amino acid amide asymmetric hydrolase and DNA encoding the same” (Mitsubishi Gas Chemical Company, Inc., priority 2004, dated 2010).

Assay [1] relates to L-amino acid amide asymmetric hydrolase (transformant strain pMCA1/JM109 cells). Put plainly: Asymmetric hydrolysis of racemic amino acid amides by using the transformant pMCA1/JM109. It counts as biochemical, Xanthobacter flavus. The following applies: 0.1% substrate, 50 mM phosphate buffer pH 7.0, 30° C. As for the experimental part: A medium having a composition as shown in the following Table 3 was prepared, and 200 mL of the medium was poured into 1-L conical flask and sterilized. After that, the medium was added with 50 μg/mL ampicillin and then inoculated with the transformant strain pMCA1/JM109, followed by shaking culture at 37° C. for 15 hours. Subsequently, the culture solution was subjected to centrifugation, to thereby obtain living cells corresponding to 0.1 g of dry cells.
Enzymatic reactions were performed by using a culture solution of the transformant strain pMCA 1/JM109 which had been cultured in the same manner as in Example 7 and a racemic mixture of various amino acid amides as a substrate. Each of the substrate compound was dissolved into 50 mM phosphate buffer (pH 7.0) such that the substrate concentration was adjusted to 0.1%, and the substrate solution was added with the cells to perform an enzymatic reaction at 30° C. […] In any of the reactions, selectivity of hydrolysis is selective to an L-form, and optical purity of the produced L-amino acid was not less than 98% e.e.

Another assay concerns X. flavus living cells. Put plainly: Asymmetric hydrolysis of 2-methylcysteine amide racemic mixture by using a wild-type microorganism. Conditions: for 2-methylcysteine produced: 30° C., 24 hours, HPLC condition B; for optical purity of the L-amino acid: supernatant, HPLC condition A. It counts as biochemical, Xanthobacter flavus. The method, then:
A medium having a composition as shown in the following Table 5 was prepared, and 200 mL of the medium was poured into a 1-L conical flask and sterilized. After that, X. flavus was inoculated thereto and shaking culture was performed at 30° C. for 170 hours. Subsequently, the culture solution was subjected to centrifugation, to thereby obtain living cells corresponding to 0.1 g of dry cells.
10.0 g (58.6 mmol) of racemic mixture of 2-methylcysteine amide hydrochloride was dissolved into 300 mL of 50 mM phosphate buffer (pH 7.0). After that, the mixture was poured into a 500-mL flask, which was added with an aqueous manganese chloride solution such that the concentration of a divalent Mn ion became 10 ppm, and further added with the living cells corresponding to 0.01 g of dry cells, followed by stirring culture at 30° C. for 24 hours under a nitrogen stream to allow a hydrolysis reaction to proceed. After completion of the reaction, the reaction solution was subjected to centrifugation to remove the cells, and the supernatant was analyzed under the HPLC condition B as shown in the following Table 6.
10 L of the culture solution obtained after culture in the medium composition in Comparative Example 1 was subjected to centrifugation, to thereby obtain living cells corresponding to 5 g of dry cells of X. flavus. 10.0 g (58.6 mmol) of a racemic mixture of 2-methylcysteine amide hydrochloride was dissolved into 300 mL of 50 mM phosphate buffer (pH 7.0). After that, the mixture was poured into 500-mL flask, which was added with an aqueous manganese chloride solution such that the concentration of a divalent Mn ion became 10 ppm, and further added with the living cells corresponding to 5 g of dry cells, followed by stirring culture at 30° C. for 24 hours under a nitrogen stream to allow a hydrolysis reaction to proceed. After completion of the reaction, the reaction solution was subjected to centrifugation to remove the cells therefrom, and the supernatant was analyzed under the HPLC condition B. As a result, it was confirmed that 28.2 mmol of 2-methylcysteine was produced. In addition, the supernatant was analyzed under the HPLC condition A, and as a result, the optical purity of the L-amino acid was not less than 98% e.e.
A biochemical asymmetric hydrolysis reaction was performed in the same manner as in Comparative Example 2 except that the aqueous manganese chloride solution was not added. The reaction was performed at 30° C. for 24 hours. After completion of the reaction, the reaction solution was subjected to centrifugation to remove the cells therefrom, and then the supernatant was analyzed under the HPLC condition B. As a result, it was confirmed that 13.9 mmol of 2-methylcysteine was produced. In addition, the supernatant was analyzed under the HPLC condition A, and as a result, the optical purity of the L-amino acid was not less than 98% e.e.

Where [2] appears, read: substrate weight/dry cell weight 0.01, reaction time 24 hr.
The mark [3] stands for this setting: substrate weight/dry cell weight 0.01, reaction time 5 hr.
Where [4] appears, read: 5 g dry cells, no manganese chloride added.
Where [5] appears, read: substrate weight/dry cell weight 0.1, reaction time 24 hr.

On to `CC(C)[C@H](N)C(N)=O` (racemic) [Valine amide], for which the Reaction rate in assay [1] (setting [2]) came out at 44.3%.
For the compound `NC(=O)[C@@H](N)Cc1ccccc1` (racemic) [Phenylalanine amide], in assay [1] (setting [3]), the Reaction rate is on record as 47.8%.
For the compound `C[C@](N)(CS)C(N)=O.Cl` (racemic) [2-methylcysteine amide, 2-methylcysteine amide hydrochloride], the 2-methylcysteine produced entry in the assay on X. flavus living cells (0.01 g dry cells, 58.6 mmol substrate, 10 ppm divalent Mn ion) is given as “no 2-methylcysteine as a product was observed”; with X. flavus living cells (5 g dry cells, 58.6 mmol substrate, 10 ppm divalent Mn ion), 28.2 mmol; with X. flavus living cells (setting [4]) it was 13.9 mmol. For the same compound, the “optical purity of the L-amino acid” value in the assay with X. flavus living cells (5 g dry cells, 10 ppm divalent Mn ion) is recorded as “not less than 98 % e.e”; with X. flavus living cells (setting [4]), “not less than 98 % e.e”.
`NC(=O)C(N)c1ccccc1` (racemic) [Phenylglycine amide] returned a Reaction rate in assay [1] (setting [3]) of 48.8%.
In turn, Allicin amide ethylene acetal had a Reaction rate in assay [1] (setting [2]) of 44.3%.
In assay [1] (substrate weight/dry cell weight 0.1, reaction time 5 hr), `CCC(N)C(N)=O` (stereo not shown) [2-amino butyrate amide] displayed a Reaction rate of 49.2%.
Turning to `CC1(C)SCNC1C(N)=O` (stereo not shown) [5,5-dimethylthiazolidin-4-carboxylate amide], the Reaction rate in assay [1] (setting [5]) was 47.0%.
`CC(C)(S)[C@H](N)C(N)=O` (racemic) [penicillamine amide]: the Reaction rate in assay [1] (setting [3]) worked out at 44.9%.
`CC(C)(C)[C@H](N)C(N)=O` (racemic) [t-leucine amide] returned a Reaction rate in assay [1] (setting [5]) of 44.4%.
